The source of these data is ChEMBL document CHEMBL1143338, “Design of beta-hairpin peptides for modulation of cell adhesion by beta-turn constraint” (J Med Chem, 2009).

Positions of bridges follow the written chain, without caps; N, C: chain ends. Residues, ends and D or L forms follow the SMILES beside them.

Type in all cases: cell-based
A short description of data set [1]: Cytotoxicity against human Caco-2 cells assessed as cell viability at 180 uM after 2 hrs by MTT assay. As to conditions: read-out: Activity.
The target in data set [2] is T1, T-cell surface antigen CD2 (Homo sapiens) (UniProt P06729).
T1 sequence (whole entry): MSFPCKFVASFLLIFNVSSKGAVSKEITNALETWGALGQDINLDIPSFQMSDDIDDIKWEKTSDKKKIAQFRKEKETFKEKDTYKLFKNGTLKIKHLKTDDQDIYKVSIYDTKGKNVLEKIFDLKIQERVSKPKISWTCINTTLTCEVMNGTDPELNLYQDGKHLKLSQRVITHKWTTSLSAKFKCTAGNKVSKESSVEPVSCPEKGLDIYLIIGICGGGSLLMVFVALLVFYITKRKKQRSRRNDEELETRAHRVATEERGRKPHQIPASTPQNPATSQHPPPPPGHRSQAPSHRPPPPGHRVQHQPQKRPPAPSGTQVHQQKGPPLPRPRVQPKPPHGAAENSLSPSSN
As to the kind of experiment: Inhibition of CD2-CD58 interaction assessed as inhibition of CD2 expressing human Jurkat T cell adhesion to CD58 expressing human Caco-2 cells at 90 uM after 45 mins by microplate fluorescence analysis.

In the next data set the test system is Jurkat. As to the kind of experiment: Inhibition of CD2-CD58 interaction assessed as inhibition of CD2 expressing human Jurkat T cell to CD58 expressing sheep RBC adhesion-associated E-rosette formation at 180 uM after 45 mins by microplate fluorescence analysis.
For data set [3], the target named is T1, T-cell surface antigen CD2 (Homo sapiens). The experiment in a line: Inhibition of CD2-CD58 interaction assessed as inhibition of CD2 expressing human Jurkat T cell adhesion to CD58 expressing human Caco-2 cells after 45 mins by microplate fluorescence analysis relative to control.
For data set [4], the target named is T2, Lymphocyte function-associated antigen 3 (Homo sapiens) (UniProt P19256).
T2 sequence (whole entry): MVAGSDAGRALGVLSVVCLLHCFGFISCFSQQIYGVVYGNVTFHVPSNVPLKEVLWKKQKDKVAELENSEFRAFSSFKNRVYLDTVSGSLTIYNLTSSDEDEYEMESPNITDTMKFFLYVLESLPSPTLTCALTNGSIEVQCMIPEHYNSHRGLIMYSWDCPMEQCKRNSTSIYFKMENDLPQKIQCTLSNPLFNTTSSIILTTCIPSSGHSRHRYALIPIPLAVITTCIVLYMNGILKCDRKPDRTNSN
The experiment in a line: Inhibition of antiCD58-FITC binding to CD58 in human Caco-2 cells at 180 uM after 1 hr by fluorescence analysis relative to control.

Turning to `CC[C@H](C)[C@@H]1NC(=O)[C@H](CC(=O)O)NC(=O)[C@H](CC(=O)O)NC(=O)CNC(=O)[C@@H]2CCCN2C(=O)[C@H](CC(=O)O)NC(=O)[C@H](Cc2ccc(O)cc2)NC(=O)[C@H]([C@@H](C)CC)NC(=O)[C@H](CCC(=O)O)NC(=O)[C@H](CCCCN)NC1=O`, the viability at 2 h, 180 µM in data set [1] is more than 80%.
As for `CC[C@H](C)[C@@H]1NC(=O)[C@H](CO)NC(=O)[C@@H](N)C(C)(C)SSC[C@@H](C(=O)O)NC(=O)[C@@H](CCCCN)NC(=O)[C@H]([C@@H](C)CC)NC(=O)[C@H](CC(=O)O)NC(=O)[C@H](CC(=O)O)NC(=O)CNC(=O)[C@@H]2CCCN2C(=O)[C@H](CC(=O)O)NC(=O)[C@H](Cc2ccc(O)cc2)NC1=O`, the figures for the inhibition (in data set [2]; in the data set with Jurkat) were 30% and 20%, respectively. Also, the viability at 2 h, 180 µM in data set [1] is more than 80%.
Consider `CC[C@H](C)[C@@H]1NC(=O)[C@H](CC(=O)O)NC(=O)[C@@H](CC(=O)O)NC(=O)CNC(=O)[C@@H]2CCCN2C(=O)[C@H](CC(=O)O)NC(=O)[C@H](Cc2ccc(O)cc2)NC(=O)[C@H]([C@@H](C)CC)NC(=O)[C@H](CCC(=O)O)NC(=O)[C@H](CCCCN)NC1=O`, for which the inhibition in data set [2] was found to be 80%; with Jurkat, 60%. For the same compound, the Activity entry in data set [3] was “Dose-dependent effect”.
Turning to `CC[C@H](C)[C@@H]1NC(=O)[C@H](CC(=O)O)NC(=O)[C@H](CC(=O)O)NC(=O)CNC(=O)[C@@H]2CCCN2C(=O)[C@H](CC(=O)O)NC(=O)[C@H](Cc2ccc(O)cc2)NC(=O)[C@H]([C@@H](C)CC)NC(=O)[C@@H](N)CCC(=O)NCCCC[C@@H](C(=O)O)NC1=O` (H-EIYDPGDDIK-OH; lactam 1-10), the values for the inhibition (in data set [2]; with Jurkat) were 80% and 50%, respectively. Moreover, in data set [3], the Activity result is “Dose-dependent effect”. The viability at 2 h, 180 µM in data set [1] is more than 80%.
Turning to `CC[C@H](C)[C@@H]1NC(=O)[C@H](CC(=O)O)NC(=O)[C@H](CC(=O)O)NC(=O)CNC(=O)[C@@H]2CCCN2C(=O)[C@H](CC(=O)O)NC(=O)[C@H](Cc2ccc(O)cc2)NC(=O)[C@H]([C@@H](C)CC)NC(=O)[C@H](CO)NC(=O)[C@@H](N)CCC(=O)NCCCC[C@@H](C(=O)O)NC1=O` (H-ESIYDPGDDIK-OH; lactam 1-11), the inhibition in data set [2] was 80%; in the data set on Jurkat, 60%; in data set [4] it was 45%. Moreover, the Activity entry in data set [3] was “Dose-dependent effect”. Moreover, the viability at 2 h, 180 µM in data set [1] is more than 80%.
